Data reported in patent publication US10125139B2, “Pesticidally active polycyclic derivatives with sulfur substituted five-membered ring heterocycles” (Syngenta Participations AG, priority 2015, dated 2018).

Tests used:
[1] = system: Myzus persicae (Green Peach Aphid); assay: Example B6: Myzus persicae systemic activity, pea seedling roots in test solution; type: in vivo; conditions: 144 h, test rate of 24 ppm, 6 days after placing seedlings into test solutions
Experimental: Example B6: Myzus persicae (Green Peach Aphid). Systemic Activity
Roots of pea seedlings infested with an aphid population of mixed ages were placed directly into aqueous test solutions prepared from 10,000 DMSO stock solutions. The samples were assessed for mortality 6 days after placing seedlings into test solutions.

[2] = system: Spodoptera littoralis (Egyptian Cotton Leaf Worm); assay: Example B9: Spodoptera littoralis, cotton leaf discs, L1 larvae; type: in vivo; conditions: for percent control (mortality, anti-feedant effect or growth inhibition) at 200 ppm: Spodoptera littoralis, foliar, 72 h, application rate of 200 ppm, 3 days after infestation, L1 larvae
Experimental: Example B9: Spodoptera littoralis (Egyptian Cotton Leaf Worm)
Cotton leaf discs were placed onto agar in 24-well microtiter plates and sprayed with aqueous test solutions prepared from 10,000 ppm DMSO stock solutions. After drying the leaf discs were infested with five L1 larvae. The samples were assessed for mortality, anti-feeding effect, and growth inhibition in comparison to untreated samples 3 days after infestation. Control of Spodoptera littoralis by a test sample is given when at least one of the categories mortality, anti-feedant effect, and growth inhibition is higher than the untreated sample.
(§1) Insecticidal action against Diabrotica balteata (Corn root worm), Plutella xylostella (Diamond black moth), and Spodoptera littoralis (Egyptian cotton leaf worm). The tests were carried out as described in biological examples B2, B8 and B9, respectively, with the larval feeding/contact activity (mortality only) being reported as Breakpoint (BP80) values in parts per million (i.e. the lowest concentration which gives 80% larval mortality).

[3] = system: Plutella xylostella (Diamond Back Moth); assay: Example B8: Plutella xylostella, artificial diet, L2 larvae; type: in vivo; conditions: for percent effect (mortality or growth inhibition) at 200 ppm: Plutella xylostella, 120 h, application rate of 200 ppm, 5 days after infestation, L2 larvae, read-out: effect in at least one of the two categories (mortality or growth inhibition)
Experimental: Example B8: Plutella xylostella (Diamond Back Moth)
(§2) 24-well microtiter plates with artificial diet were treated with aqueous test solutions prepared from 10,000 ppm DMSO stock solutions by pipetting. After drying, the plates were infested with L2 larvae (10 to 15 per well). The samples were assessed for mortality and growth inhibition in comparison to untreated samples 5 days after infestation. The following compounds gave an effect of at least 80% in at least one of the two categories (mortality or growth inhibition) at an application rate of 200 ppm:
as §1

[4] = system: Spodoptera littoralis (Egyptian Cotton Leaf Worm); assay: Example B10: Spodoptera littoralis systemic activity, lettuce grown on treated agar; type: in vivo; conditions: 144 h, test rate of 12.5 ppm, 6 days after infestation, read-out: effect in at least one of the three categories (mortality, anti-feeding, or growth inhibition)
Description: Example B10: Spodoptera littoralis (Egyptian Cotton Leaf Worm) Systemic Activity
Test compounds were applied by pipette from 10,000 ppm DMSO stock solutions into 24-well plates and mixed with agar. Lettuce seeds were placed onto the agar and the multi well plate was closed by another plate which contained also agar. After 7 days the compound was absorbed by the roots and the lettuce grew into the lid plate. The lettuce leaves were then cut off into the lid plate. Spodoptera eggs were pipetted through a plastic stencil onto a humid gel blotting paper and the lid plate was closed with it. The samples were assessed for mortality, anti-feedant effect and growth inhibition in comparison to untreated samples 6 days after infestation. The following compounds gave an effect of at least 80% in at least one of the three categories (mortality, anti-feeding, or growth inhibition) at a test rate of 12.5 ppm: […]

[5] = system: Bemisia tabaci (Cotton White Fly); assay: Example B1: Bemisia tabaci feeding/contact activity, cotton leaf discs; type: in vivo; conditions: foliar, 144 h, application rate of 200 ppm, 6 days after incubation, adult white flies
Experimental: Example B1: Bemisia tabaci (Cotton White Fly): Feeding/Contact Activity
(§3) Cotton leaf discs were placed on agar in 24-well microtiter plates and sprayed with aqueous test solutions prepared from 10,000 ppm DMSO stock solutions. After drying the leaf discs were infested with adult white flies. The samples were checked for mortality 6 days after incubation.

[6] = system: Euschistus heros (Neotropical Brown Stink Bug); assay: Example B3: Euschistus heros, sprayed soybean leaves, N2 nymphs; type: in vivo; conditions: 120 h, application rate of 200 ppm, 5 days after infestation, read-out: effect in at least one of the two categories (mortality or growth inhibition)
Experimental: Example B3: Euschistus heros (Neotropical Brown Stink Bug)
Soybean leaves on agar in 24-well microtiter plates were sprayed with aqueous test solutions prepared from 10,000 ppm DMSO stock solutions. After drying the leaves were infested with N2 nymphs. The samples were assessed for mortality and growth inhibition in comparison to untreated samples 5 days after infestation. The following compounds gave an effect of at least 80% in at least one of the two categories (mortality or growth inhibition) at an application rate of 200 ppm: […]

[7] = system: Diabrotica balteata (Corn Root Worm); assay: Example B2: Diabrotica balteata, sprayed maize sprouts, L2 larvae; type: in vivo; conditions: for percent effect (mortality or growth inhibition) at 200 ppm: Diabrotica balteata, 96 h, application rate of 200 ppm, 4 days after infestation, L2 larvae, read-out: effect in at least one of the two categories (mortality or growth inhibition)
Experimental: Example B2: Diabrotica balteata (Corn Root Worm)
as §2, with “Maize sprouts placed onto an agar layer in 24-well” for “24-well”, “plates” for “plates with artificial diet”, “spraying.” for “pipetting.”, “(6” for “(10”, “10” for “15”, “4” for “5”
as §1

[8] = system: Thrips tabaci (Onion thrips); assay: Example B12: Thrips tabaci feeding/contact activity, sunflower leaf discs; type: in vivo; conditions: foliar, 144 h, application rate of 200 ppm, 6 days after infestation
Experimental: Example B12: Thrips tabaci (Onion thrips) Feeding/Contact Activity
as §3, with “Sunflower” for “Cotton”, “a thrips population of mixed ages.” for “adult white flies.”, “assessed” for “checked”, “infestation.” for “incubation.”

[9] = system: Myzus persicae (Green Peach Aphid); assay: Example B5: Myzus persicae feeding/contact activity, sunflower leaf discs; type: in vivo; conditions: foliar, 144 h, application rate of 200 ppm, 6 days after infestation
Experimental: Example B5: Myzus persicae (Green Peach Aphid): Feeding/Contact Activity
Sunflower leaf discs were placed onto agar in a 24-well microtiter plate and sprayed with aqueous test solutions prepared from 10,000 ppm DMSO stock solutions. After drying, the leaf discs were infested with an aphid population of mixed ages. The samples were assessed for mortality 6 days after infestation.

[10] = system: Frankliniella occidentalis (Western Flower thrips); assay: Example B4: Frankliniella occidentalis feeding/contact activity, sunflower leaf discs; type: in vivo; conditions: foliar, 168 h, application rate of 200 ppm, 7 days after infestation, population of mixed ages
Experimental: Example B4: Frankliniella occidentalis (Western Flower thrips): Feeding/Contact Activity
Sunflower leaf discs were placed on agar in 24-well microtiter plates and sprayed with aqueous test solutions prepared from 10,000 DMSO stock solutions. After drying the leaf discs were infested with a Frankliniella population of mixed ages. The samples were assessed for mortality 7 days after infestation.

| melting point [°C] | Structure (SMILES) | percent control (mortality, anti-feedant effect or growth inhibition) at 200 ppm [2] [%] | percent effect (mortality or growth inhibition) at 200 ppm [3] [%] | percent effect (mortality, anti-feeding or growth inhibition) at 12.5 ppm [4] [%] | mortality at 200 ppm [5] [%] | percent effect (mortality or growth inhibition) at 200 ppm [6] [%] | percent effect (mortality or growth inhibition) at 200 ppm [7] [%] | mortality at 200 ppm [8] [%] | mortality at 200 ppm [9] [%] | mortality at 200 ppm [10] [%] | further results |
| --- | --- | --- | --- | --- | --- | --- | --- | --- | --- | --- | --- |
| – | CCS(=O)(=O)c1nc(-c2ncccn2)sc1-c1nc2cc(C(F)(F)F)ncc2n1C [Example P-9, 4-ethylsulfonyl-5-[3-methyl-6-(trifluoromethyl)imidazo[4,5-c]pyridin-2-yl]-2-pyrimidin-2-yl-thiazole] | – | – | – | – | – | – | – | – | – | mortality at 24 ppm [1]: ≥ 80% |
| – | CCS(=O)(=O)c1cc(-c2ccc(Cl)cc2)sc1-c1nc2cc(C(F)(F)F)nnc2n1C [Example P-18, 6-[5-(4-chlorophenyl)-3-ethylsulfonyl-2-thienyl]-7-methyl-3-(trifluoromethyl)imidazo[4,5-c]pyridazine] | ≥ 80 | ≥ 80 | ≥ 80 | ≥ 80 | ≥ 80 | ≥ 80 | ≥ 80 | ≥ 80 | ≥ 80 | – |
| – | CCS(=O)(=O)c1nc(-c2ccc(Cl)cc2)sc1-c1nc2cc(C(F)(F)F)ncc2n1C [Example P-4, 2-(4-chlorophenyl)-4-ethylsulfonyl-5-[3-methyl-6-(trifluoromethyl)imidazo[4,5-c]pyridin-2-yl]thiazole] | ≥ 80 | ≥ 80 | ≥ 80 | ≥ 80 | ≥ 80 | ≥ 80 | – | ≥ 80 | ≥ 80 | – |
| – | CCS(=O)(=O)c1cc(-c2ccc(Cl)cc2)sc1-c1nc2cc(SC(F)(F)F)ncc2n1C [Example P-15] | ≥ 80 | ≥ 80 | ≥ 80 | ≥ 80 | ≥ 80 | ≥ 80 | ≥ 80 | ≥ 80 | ≥ 80 | – |
| 205 to 207 | CCSc1cc(-c2ccc(Cl)cc2)sc1-c1nc2cc(C(F)(F)F)nnc2n1C [Example P-17, 6-[5-(4-chlorophenyl)-3-ethylsulfanyl-2-thienyl]-7-methyl-3-(trifluoromethyl)imidazo[4,5-c]pyridazine] | – | – | – | – | – | – | – | – | – | – |
| 248 to 250 | CCS(=O)(=O)c1nc(Br)sc1-c1nc2cc(C(F)(F)F)ncc2n1C [Example I-4, 2-bromo-4-ethylsulfonyl-5-[3-methyl-6-(trifluoromethyl)imidazo[4,5-c]pyridin-2-yl]thiazole] | – | – | – | – | – | – | – | – | – | – |
| – | CCS(=O)(=O)c1cc(I)sc1-c1nc2cc(C(F)(F)F)nnc2n1C [Example I-6, 6-(3-ethylsulfonyl-5-iodo-2-thienyl)-7-methyl-3-(trifluoromethyl)imidazo[4,5-c]pyridazine] | ≥ 80 | ≥ 80 | ≥ 80 | – | – | ≥ 80 | – | – | – | – |
| – | CCS(=O)(=O)c1cc(-c2ccc(C(F)(F)F)cc2)sc1-c1nc2cc(C(F)(F)F)ncc2n1C [Example P-1, 2-[3-ethylsulfonyl-5-[4-(trifluoromethyl)phenyl]-2-thienyl]-3-methyl-6-(trifluoromethyl)imidazo[4,5-c]pyridine] | ≥ 80 | ≥ 80 | ≥ 80 | – | ≥ 80 | ≥ 80 | – | ≥ 80 | – | BP80 (Breakpoint, lowest concentration which gives 80% larval mortality) Spodoptera littoralis ([2]; larval feeding/contact activity, mortality only, test as in B9): 0.8 ppm; BP80 (Breakpoint, lowest concentration which gives 80% larval mortality) Plutella xylostella ([3]; larval feeding/contact activity, mortality only, test as in B8): 0.8 ppm; BP80 (Breakpoint, lowest concentration which gives 80% larval mortality) Diabrotica balteata ([7]; larval feeding/contact activity, mortality only, test as in B2): 0.8 ppm |
| 230 to 232 | CCSc1nc(-c2ncccn2)sc1-c1nc2cc(C(F)(F)F)ncc2n1C [Example P-11] | – | – | – | – | – | – | – | – | – | – |
| 61 to 63 | CCSc1cc(I)sc1-c1nc2cc(C(F)(F)F)ncc2n1C [Example I-12, 2-(3-ethylsulfanyl-5-iodo-2-thienyl)-3-methyl-6-(trifluoromethyl)imidazo[4,5-c]pyridine] | – | – | – | – | – | – | – | – | – | – |
| – | CCS(=O)(=O)c1cc(-c2ccc(Cl)cc2)sc1-c1nc2cc(C(F)(F)F)ncc2n1C [Example P-5, 2-[5-(4-chlorophenyl)-3-ethylsulfonyl-2-thienyl]-3-methyl-6-(trifluoromethyl)imidazo[4,5-c]pyridine] | ≥ 80 | ≥ 80 | ≥ 80 | ≥ 80 | ≥ 80 | ≥ 80 | ≥ 80 | ≥ 80 | ≥ 80 | – |
| – | CCS(=O)(=O)c1nc(-n2ccc(C(F)(F)F)n2)sc1-c1nc2cc(C(F)(F)F)ncc2n1C [Example P-10, 4-ethylsulfonyl-5-[3-methyl-6-(trifluoromethyl)imidazo[4,5-c]pyridin-2-yl]-2-[3-(trifluoromethyl)pyrazol-1-yl]thiazole] | ≥ 80 | – | ≥ 80 | ≥ 80 | ≥ 80 | ≥ 80 | ≥ 80 | ≥ 80 | ≥ 80 | – |
| 169 to 171 | CCS(=O)(=O)c1ncsc1-c1nc2cc(C(F)(F)F)ncc2n1C [Example I-2] | – | – | – | – | – | – | – | – | – | – |
